SMILES strings stand for the structures. “And” between values parts separate entries of the source, which are not always exact repeats. Equal values may be shown once.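 1) Cells in 96-well plates. 2) Compound, 48 h, 5 concentrations. 3) Linear interpolation between surrounding doses. 4) Unreached endpoint = highest concentration. At the GI50, growth is halved. TGI denotes the concentration required for complete inhibition of growth.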

Our source for the GI50 and TGI values is PubChem BioAssay (NCI).

Some test systems named below: CCRF-CEM leukemia; SF-539 CNS; MCF7 breast; OVCAR-3 ovarian; A549 NSCLC; NCI-H226 lung; HCT-15 colon; NCI-H522 lung; ACHN renal; SNB-75 CNS.
What all share (test): NCI anticancer screen, dose series, 48 h

On to `CN[C@H]1C=C[C@@H]2/C=C(C)/C=C/[C@@H](C)[C@H]([C@H](C)[C@H](O)[C@@H](C)NC(C)=O)OC(=O)/C=C/C=C(C)\C=C\[C@]2(C)C1`, for which the GI50 was 6160 nM with CCRF-CEM leukemia; < 1 nM and 4.9 nM in the assay on SF-539 CNS; < 1 nM and 4.9 nM in the assay with MCF7 breast; 4.9 nM in the assay on A549 NSCLC; 7.43 nM in the assay with NCI-H226 lung; 90.6 nM and 81.4 nM in the assay on HCT-15 colon. In addition, the GI50 in the assay on NCI-H522 lung is 45 nM and 22.9 nM; in the assay on ACHN renal, 14.6 nM; in the assay with SNB-75 CNS it was 4.9 nM. The TGI in the assay with CCRF-CEM leukemia was above 49000 nM; in the assay with SF-539 CNS, 12800 nM; with MCF7 breast it was above 49000 nM; with OVCAR-3 ovarian it was 46700 nM; in the assay on A549 NSCLC, above 49000 nM; with NCI-H226 lung, 10300 nM. Besides, the TGI is above 49000 nM with HCT-15 colon, 13100 nM with NCI-H522 lung, above 49000 nM with ACHN renal and 6080 nM in the assay with SNB-75 CNS.

On to `CCCNNC(=O)/C=C/c1ccc(CNCCc2c(C)[nH]c3ccccc23)cc1`, for which the GI50 in the assay on CCRF-CEM leukemia was 13.8 nM; in the assay on SF-539 CNS, 43.5 nM; with MCF7 breast, 25.2 nM; with OVCAR-3 ovarian, 43.3 nM; in the assay on A549 NSCLC it was 68.9 nM; in the assay with NCI-H226 lung it was 29.1 nM. The GI50 in the assay with HCT-15 colon was 95.4 nM; in the assay with NCI-H522 lung, 44.7 nM; with ACHN renal it was 28.4 nM; in the assay on SNB-75 CNS, 75.3 nM. The TGI with CCRF-CEM leukemia was 6430 nM; with SF-539 CNS it was 3780 nM; with MCF7 breast, 3600 nM; in the assay with OVCAR-3 ovarian, 161 nM; in the assay on A549 NSCLC, 2020 nM; in the assay with NCI-H226 lung, 131 nM. Also, the TGI in the assay with HCT-15 colon was 3160 nM; in the assay on NCI-H522 lung it was 4190 nM; with ACHN renal, 116 nM; with SNB-75 CNS, 2940 nM.
